Results reported in ChEMBL document CHEMBL3612012, “Identification of orally-bioavailable antagonists of the TRPV4 ion-channel” (Bioorg Med Chem Lett, 2015).
In brackets after ≈: the same amount, converted by molar mass.

Tests used:
[1] = biological target: Transient receptor potential cation channel subfamily V member 4 (Homo sapiens, UniProt Q9HBA0); test: Antagonist activity at human TRPV4 receptor expressed in HEK293 cells assessed as inhibition of EC80 of 4alpha-PDD-stimulated calcium flux after 10 mins; type: cell-based
Sequence of Transient receptor potential cation channel subfamily V member 4 (Homo sapiens, UniProt Q9HBA0) (Q9HBA0 whole entry): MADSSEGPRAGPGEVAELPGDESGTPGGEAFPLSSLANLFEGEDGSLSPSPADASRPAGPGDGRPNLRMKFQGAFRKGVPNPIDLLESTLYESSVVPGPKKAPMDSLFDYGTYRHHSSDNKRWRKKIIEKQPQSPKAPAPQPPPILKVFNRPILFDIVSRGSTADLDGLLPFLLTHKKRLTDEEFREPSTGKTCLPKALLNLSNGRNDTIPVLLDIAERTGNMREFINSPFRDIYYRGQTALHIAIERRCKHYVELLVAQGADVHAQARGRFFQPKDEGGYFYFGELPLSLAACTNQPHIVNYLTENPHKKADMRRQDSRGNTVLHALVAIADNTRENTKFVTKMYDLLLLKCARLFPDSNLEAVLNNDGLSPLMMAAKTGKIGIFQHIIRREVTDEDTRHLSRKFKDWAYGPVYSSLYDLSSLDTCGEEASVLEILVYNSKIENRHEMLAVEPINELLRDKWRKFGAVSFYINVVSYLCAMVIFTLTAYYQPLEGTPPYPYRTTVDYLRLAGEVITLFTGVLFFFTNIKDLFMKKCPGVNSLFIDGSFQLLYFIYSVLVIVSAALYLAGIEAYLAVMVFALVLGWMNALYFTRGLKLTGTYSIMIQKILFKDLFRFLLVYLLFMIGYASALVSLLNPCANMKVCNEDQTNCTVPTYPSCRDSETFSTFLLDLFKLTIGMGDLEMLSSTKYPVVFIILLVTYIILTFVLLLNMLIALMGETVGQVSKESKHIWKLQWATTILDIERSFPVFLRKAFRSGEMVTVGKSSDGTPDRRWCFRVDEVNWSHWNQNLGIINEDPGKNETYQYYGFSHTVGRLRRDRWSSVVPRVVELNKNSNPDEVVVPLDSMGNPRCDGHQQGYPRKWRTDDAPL

[2] = biological target: Transient receptor potential cation channel subfamily V member 4 (Rattus norvegicus, UniProt Q9ERZ8); test: Antagonist activity at rat TRPV4 receptor expressed in HEK293 cells assessed as inhibition of EC80 of 4alpha-PDD-stimulated calcium flux after 10 mins; type: cell-based
Sequence of Transient receptor potential cation channel subfamily V member 4 (Rattus norvegicus, UniProt Q9ERZ8) (Q9ERZ8 whole entry): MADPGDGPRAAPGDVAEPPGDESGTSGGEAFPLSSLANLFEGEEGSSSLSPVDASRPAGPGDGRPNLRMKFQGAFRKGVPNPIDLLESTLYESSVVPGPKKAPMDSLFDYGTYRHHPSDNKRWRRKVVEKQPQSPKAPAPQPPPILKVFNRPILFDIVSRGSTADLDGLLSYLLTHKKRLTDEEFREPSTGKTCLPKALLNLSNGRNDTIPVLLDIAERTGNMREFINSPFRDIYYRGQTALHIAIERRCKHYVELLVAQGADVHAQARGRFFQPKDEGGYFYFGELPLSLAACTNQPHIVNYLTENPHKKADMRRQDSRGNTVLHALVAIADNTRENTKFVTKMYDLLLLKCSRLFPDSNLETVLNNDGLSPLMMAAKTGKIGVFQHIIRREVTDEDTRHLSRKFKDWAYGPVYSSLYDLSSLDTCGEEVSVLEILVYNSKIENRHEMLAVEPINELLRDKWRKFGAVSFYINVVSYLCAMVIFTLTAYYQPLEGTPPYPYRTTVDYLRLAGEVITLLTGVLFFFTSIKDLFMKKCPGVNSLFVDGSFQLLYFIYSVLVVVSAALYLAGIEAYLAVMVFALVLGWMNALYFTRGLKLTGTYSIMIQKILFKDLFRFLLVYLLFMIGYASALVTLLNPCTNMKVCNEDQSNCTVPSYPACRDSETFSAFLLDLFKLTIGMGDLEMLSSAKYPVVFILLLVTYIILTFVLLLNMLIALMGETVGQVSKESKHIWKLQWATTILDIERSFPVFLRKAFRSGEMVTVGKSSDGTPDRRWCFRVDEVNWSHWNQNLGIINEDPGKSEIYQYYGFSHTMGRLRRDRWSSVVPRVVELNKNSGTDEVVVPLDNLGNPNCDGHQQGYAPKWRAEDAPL

[3] = AUC (infinity) in Wistar rat at 1.05 mg/kg, iv; type: ADME, organism-based; set-up: dose 1.05 mg/kg, route intravenous, time infinity; settings: in vivo
[4] = Plasma protein binding in human; type: ADME, cell-free; settings: read-out: PPB (converted)
[5] = Half life in Wistar rat at 1.05 mg/kg, iv; type: ADME, organism-based; settings: in vivo
[6] = Plasma protein binding in rat; type: ADME, cell-free; settings: read-out: PPB (converted)
[7] = Oral bioavailability in Wistar rat at 1.80 mg/kg; type: ADME, organism-based; settings: in vivo, 1.8 mg/kg
[8] = Clearance in Wistar rat at 1.05 mg/kg, iv; type: ADME, organism-based; settings: in vivo
[9] = Volume of distribution at steady state in Wistar rat at 1.05 mg/kg, iv; type: ADME, organism-based; settings: in vivo, read-out: Vdss
[10] = AUC (infinity) in Wistar rat at 1.80 mg/kg, po; type: ADME, organism-based; set-up: dose 1.8 mg/kg, time infinity, route oral; settings: in vivo, 1.8 mg/kg
[11] = Solubility of the compound at pH 7.4; type: physicochemical; settings: buffer
[12] = Cmax in Wistar rat at 1.80 mg/kg, po; type: ADME, organism-based; set-up: dose 1.8 mg/kg, route oral; settings: in vivo, 1.8 mg/kg

| IC50 [1] [nM] | IC50 [2] [nM] | Structure (SMILES) | also measured |
| --- | --- | --- | --- |
| 2110 | – | CN(C)C1CCN(S(=O)(=O)c2ccc(NC(=O)c3ccc(C(F)(F)F)cc3)cc2)CC1 | – |
| 800 | – | O=C(Nc1ccc(S(=O)(=O)N2CCN(C3CCCC3)CC2)cc1)c1ccc(C(F)(F)F)cc1 | – |
| 8530 | 4300 | CC(C)N1CCN(S(=O)(=O)c2ccc(NC(=O)c3ccccc3)cc2)CC1 | – |
| 710 | 940 | CC(C)N1CCN(S(=O)(=O)c2ccc(NC(=O)c3ccc(C(F)(F)F)cc3)cc2)CC1 | – |
| 380 | 370 | CC(C)N1CCN(S(=O)(=O)c2ccc(NC(=O)c3ccc(C(F)(F)F)cc3F)cc2)CC1 | – |
| 910 | – | CCN(CC)C1CCN(S(=O)(=O)c2ccc(NC(=O)c3ccc(C(F)(F)F)cc3)cc2)CC1 | – |
| 4220 | 5740 | CN(C)S(=O)(=O)c1ccc(NC(=O)c2ccc(C(F)(F)F)cc2)cc1 | – |
| 930 | 2920 | CC(C)N1CCN(S(=O)(=O)c2ccc(NC(=O)c3ccc(C(F)(F)F)cc3N)cc2)CC1 | – |
| 4930 | 6490 | CC(C)N1CCN(S(=O)(=O)c2ccc(NC(=O)c3ccc(-c4ccccn4)cc3)cc2)CC1 | – |
| 930 | 3900 | CC(C)N1CCN(S(=O)(=O)c2ccc(NC(=O)c3ccc(-c4ncccc4Cl)cc3)cc2)CC1 | – |
| 1320 | – | CC(C)N1CCCN(S(=O)(=O)c2ccc(NC(=O)c3ccc(C(F)(F)F)cc3)cc2)CC1 | – |
| 260 | 390 | CC(C)N1CCN(S(=O)(=O)c2ccc(NC(=O)c3ccc(S(F)(F)(F)(F)F)cc3)cc2)CC1 | AUC(0-inf) [3]: 779 ng·h/mL; fraction unbound [4]: 0.0008; half-life [5]: 1.03 h; fraction unbound [6]: 0.0009; bioavailability [7]: 22.7%; clearance [8]: 22.5 mL/min/kg; Vd [9]: 2.01 L/kg; AUC(0-inf) [10]: 303 ng·h/mL; solubility [11]: 0.15 µM (≈ 0.077 µg/mL); Cmax [12]: 143 ng/mL |
| 390 | 1050 | CC(C)N1CCN(S(=O)(=O)c2ccc(NC(=O)c3ccc(C(C)(C)C)cc3)cc2)CC1 | – |
| > 10000 | > 10000 | CC(C)N1CCN(S(=O)(=O)c2ccc(NS(=O)(=O)c3ccc(C(F)(F)F)cc3)cc2)CC1 | – |
| 1280 | – | CCN(C)C1CCN(S(=O)(=O)c2ccc(NC(=O)c3ccc(C(F)(F)F)cc3)cc2)CC1 | – |
| 540 | 490 | CC(C)N1CCN(S(=O)(=O)c2ccc(NC(=O)c3ccc(C(F)(F)F)cc3C(F)(F)F)cc2)CC1 | – |
| 2170 | 1940 | CC(C)N1CCN(S(=O)(=O)c2ccc(NC(=O)c3cccc(C(F)(F)F)c3)cc2)CC1 | – |
| > 10000 | > 10000 | CC(C)N1CCN(C(=O)c2ccc(NC(=O)c3ccc(C(F)(F)F)cc3)cc2)CC1 | – |
